In patent US20050282877A1, “Method of decreasing inflammation in kidney transplantion using angiotensin receptor blockers” (priority 2004, published 2005):

Legend:
[1] = cited from earlier work
plasma proteins = conditions: in vivo; cited from earlier work
IL-4 or IL-5 = test: ELISpot assay for IL-4 or IL-5 production in PBLs from CAN patients; assay type: in vivo, human; conditions: following institution of ARB therapy (data not shown)
Description: Once identified, study subjects were randomized and treated with either losartan (25-100 mg) as part of their anti-hypertensive regimen or with other types of anti-hypertensive agents, e.g., calcium channel blockers. Agents functioning as AT1R blockers were excluded. Neither group received ACE inhibitors. Study subjects were maintained on their standard immunosuppressive regimen (corticosteroids 5-10 mg orally daily; mycophenolate mofetil 500 to 1000 mg orally twice a day; and calcineurin inhibition with either tacrolimus (target levels 2-5 ng/ml), cyclosporine A (target levels 100-150 ng/ml), or rapamycin (target levels 5-15 ng/ml ). ELISpot assays were conducted according to the manufacturer's directions (Cellular Technology Ltd., Cleveland, Ohio). Briefly, after plating cells in the proliferation assay, the balance of the cells unused in that assay were used for the ELISpot assay at a concentration of 3×10^6 cells per ml. One hundred μl of RPMI media were added to each well with a multichannel pipetter. Aliquots of treated and untreated cells (300 μl) were added to the IFN-Γ and IL-5 wells with serial two-fold dilutions. The last row served as a media control. ELISpot plates were incubated for two days at 37EC. […] Plate images were then scanned into computer images and spots analyzed using Immunospot-brand software (from CTL Technologies).

IFN-Γ = test: ELISpot assay for T cell generation of IFN-Γ in PBLs from CAN patients; assay type: in vivo, human
Description: Once identified, study subjects were randomized and treated with either losartan (25-100 mg) as part of their anti-hypertensive regimen or with other types of anti-hypertensive agents, e.g., calcium channel blockers. Agents functioning as AT1R blockers were excluded. Neither group received ACE inhibitors. Study subjects were maintained on their standard immunosuppressive regimen (corticosteroids 5-10 mg orally daily; mycophenolate mofetil 500 to 1000 mg orally twice a day; and calcineurin inhibition with either tacrolimus (target levels 2-5 ng/ml), cyclosporine A (target levels 100-150 ng/ml), or rapamycin (target levels 5-15 ng/ml ). Eight to nine milliliters of whole blood taken at each time point from each individual were incubated at room temperature in 40 ml ACK lysis buffer (150 mM NH4Cl, 10 mM KHCO3, 0.1 mM Na2EDTA, pH 7.3) for 10 minutes to lyse red blood cells. Samples were then centrifuged at 1000 rpm. The supernatant was discarded. Cells were resuspended in 10 ml complete RPMI media (RPMI-1640, BioWhitaker, Walkersville, Md.) supplemented with FCS (Sigma Aldrich, St. Louis, Mo.); 2 mM L-glutamine (BioWhitaker); 50 μM 2-β-mercaptoethanol (Sigma Aldrich); 100 U/ml penicillin; and 100 μg/ml streptomycin sulfate (Sigma Aldrich). Twenty μl of this sample was removed for cell enumeration. Forty ml of complete RPMI media was then added to the remaining sample and this was centrifuged at 1000 rpm for 10 minutes. The resulting PBL pellet was resuspended in complete RPMI media at a concentration of 1.5×10^6 cells per ml. ELISpot assays were conducted according to the manufacturer's directions (Cellular Technology Ltd., Cleveland, Ohio). Briefly, after plating cells in the proliferation assay, the balance of the cells unused in that assay were used for the ELISpot assay at a concentration of 3×10^6 cells per ml. One hundred μl of RPMI media were added to each well with a multichannel pipetter. Aliquots of treated and untreated cells (300 μl) were added to the IFN-Γ and IL-5 wells with serial two-fold dilutions. The last row served as a media control. ELISpot plates were incubated for two days at 37EC. Plates were washed three times with PBS and then washed three times with PBS/Tween. Secondary detection antibodies (OptElA, IFN, and IL-5 obtained from the aforementioned kits) were diluted at 4 μl/ml in 1% BSA/PBS and added to the plates for 24 hours at 4EC. The plates were then washed four times with PBS/Tween. Streptavidin alkaline phosphatase 1:1000 (Dako Cytomation, Glostrop, Denmark, catalog no. D0396) 100 μl/well diluted in 1% BSA/PBS/Tween was then added to the plates at room temperature for two hours. […] Plate images were then scanned into computer images and spots analyzed using Immunospot-brand software (from CTL Technologies).

[2] = Systolic blood pressure in the study cohort; assay type: in vivo, human; conditions: every clinic visit at 3-month intervals
Description: FIG. 1A is a graph depicting the systolic blood pressure in the study cohort. (The study cohort is described in the Examples.) Blood pressure was assessed at every clinic visit at 3-month intervals. […] Data shown are mean±standard deviation.”
(§1) Once identified, study subjects were randomized and treated with either losartan (25-100 mg) as part of their anti-hypertensive regimen or with other types of anti-hypertensive agents, e.g., calcium channel blockers. Agents functioning as AT1R blockers were excluded. Neither group received ACE inhibitors. Study subjects were maintained on their standard immunosuppressive regimen (corticosteroids 5-10 mg orally daily; mycophenolate mofetil 500 to 1000 mg orally twice a day; and calcineurin inhibition with either tacrolimus (target levels 2-5 ng/ml), cyclosporine A (target levels 100-150 ng/ml), or rapamycin (target levels 5-15 ng/ml ).
(§2) Study subjects underwent biopsies at the initiation of the study. Simultaneously, whole blood samples were obtained for analysis of peripheral blood lymphocyte proliferation and stimulated cytokine production. Subsequent whole blood samples were obtained at three-month intervals for serial analyses. […] Estimated glomerular filtration rate (eGFR) was assessed using the second equation derived by Nankivell. […]

[3] = Estimated glomerular filtration rate (eGFR) in the study cohort; assay type: in vivo, human; conditions: with institution of ARB therapy, compared to control group
Description: FIG. 1B is a graph depicting the estimated glomerular filtration rate (eGFR) in the study cohort. Estimated GFR was calculated using the second equation derived by Nankivell et al. at the time points designated in the Examples. […] The eGFR in the ARB-treated cohort (-o-) declined slightly after treatment as compared to the control group (-▪-). Data shown are mean±standard deviation.
as §1
as §2, with “production.” for “production. Subsequent whole blood samples were obtained at three-month intervals for serial analyses.”

[4] = test system: peripheral blood lymphocytes (PBLs); test: Proliferation assay ([3H]-thymidine) of CD3/CD28-stimulated PBLs from CAN patients; assay type: in vivo, human
Description: Once identified, study subjects were randomized and treated with either losartan (25-100 mg) as part of their anti-hypertensive regimen or with other types of anti-hypertensive agents, e.g., calcium channel blockers. Agents functioning as AT1R blockers were excluded. Neither group received ACE inhibitors. Study subjects were maintained on their standard immunosuppressive regimen (corticosteroids 5-10 mg orally daily; mycophenolate mofetil 500 to 1000 mg orally twice a day; and calcineurin inhibition with either tacrolimus (target levels 2-5 ng/ml), cyclosporine A (target levels 100-150 ng/ml), or rapamycin (target levels 5-15 ng/ml ). Eight to nine milliliters of whole blood taken at each time point from each individual were incubated at room temperature in 40 ml ACK lysis buffer (150 mM NH4Cl, 10 mM KHCO3, 0.1 mM Na2EDTA, pH 7.3) for 10 minutes to lyse red blood cells. Samples were then centrifuged at 1000 rpm. The supernatant was discarded. Cells were resuspended in 10 ml complete RPMI media (RPMI-1640, BioWhitaker, Walkersville, Md.) supplemented with FCS (Sigma Aldrich, St. Louis, Mo.); 2 mM L-glutamine (BioWhitaker); 50 μM 2-β-mercaptoethanol (Sigma Aldrich); 100 U/ml penicillin; and 100 μg/ml streptomycin sulfate (Sigma Aldrich). Twenty μl of this sample was removed for cell enumeration. Forty ml of complete RPMI media was then added to the remaining sample and this was centrifuged at 1000 rpm for 10 minutes. The resulting PBL pellet was resuspended in complete RPMI media at a concentration of 1.5×10^6 cells per ml. CD3/CD28-coated plates were coated with antibody diluted in PBS (1 mg/mI). […] Some plates were analyzed immediately after the overnight incubation. Other plates were frozen at 20EC and then analyzed within 30 days of the initial study. [^3H]-Thymidine incorporation was then determined using a Packard TopCount NXT scintillation plate reader. […] The Δ proliferation index was then calculated by assessing the difference between the proliferation index at baseline and the proliferation index at various study time points as indicated.

STAT3 = conditions: losartan treatment; cited from earlier work
STAT1 = conditions: losartan treatment; cited from earlier work
urinary H2O2 = test: Detection of urinary hydrogen peroxide (H2O2) in kidney transplant recipients with CAN; assay type: in vivo, human; conditions: mean±SD
Description: The study, enrollment process, and protocols described herein were approved by the University of Wisconsin Institutional Review Board. Individuals with evidence of chronic allograft dysfunction have allograft functionality greater than 6 months with serum creatinine≧0.3 mg/dl above discharge creatinine. In the absence of acute rejection, these individuals have obstructive uropathy or urinary tract infection. To be eligible for the study, individuals also had concomitant evidence of elevated blood pressure (>140/80) and/or proteinuria (>2+ on dipstick urinalysis or spot urine protein-to-creatinine ratio>1).
as §1, §2
The Amplex Red Hydrogen Peroxide/Peroxidase Assay Kit (Molecular Probes, Eugene, Ore.) was used according to the manufacturer's instructions to measure H2O2. […] A microplate reader with fluorescence emission detection at 590 nm was used to measure H2O2 levels. H2O2 concentrations were read from the standard curve.

In the case of `CCCc1nc2c(C)cc(-c3nc4ccccc4n3C)cc2n1Cc1ccc(-c2ccccc2C(=O)O)cc1` [Telmisartan, 4′-[(1,4′-dimethyl-2′-propyl [2,6′-bi-1H-benzimidazol]-1′-yl)methyl]-[1,1′-biphenyl]-2-carboxylic acid], the “solubility in strong acids” value ([1]; strong acids (except HCl)) is listed as “sparingly soluble”, the “solubility in strong bases” value ([1]; strong bases) is listed as “soluble” and the “solubility in water within a pH range” value ([1]; water, pH range of from 3 to 9) is listed as “practically insoluble”.
For `CCCCc1nc(Cl)c(C(=O)O)n1Cc1ccc(-c2ccccc2-c2nn[nH]n2)cc1` [active metabolite of losartan], the plasma-free fraction (plasma proteins) is given as 0.2%.
With `CCCCc1nc(Cl)c(CO)n1Cc1ccc(-c2ccccc2-c2nnn[nH]2)cc1.[K]` [losartan, 2-butyl-4-chloro-1-[p-(o-1H-tetrazol-5-ylphenyl)benzyl]imidazole-5-methanol monopotassium salt] the “IL-4 or IL-5 production” value (IL-4 or IL-5) was “no significant change”, the “IFN-Γ producing cells (ELISpot)” value (IFN-Γ; 3 months, p=0.01 vs control) was 4127±1289 spots per 1×10^6 cells and the “IFN-Γ producing cells (ELISpot)” value (IFN-Γ; 6 months, p=0.05 vs control) was 3899±1508 spots per 1×10^6 cells. For the same molecule, the “IFN-Γ producing cells (ELISpot)” value (IFN-Γ; 9 months, p<0.001 vs control) was 3845±1493 spots per 1×10^6 cells, the “IFN-Γ producing cells (ELISpot)” value (IFN-Γ; 12 months, p<0.05 vs control) was 4276±1456 spots per 1×10^6 cells and the plasma-free fraction (plasma proteins) was 1.3%. For the same molecule, the “systolic blood pressure, ARB-treated versus non-ARB-treated cohort” value [2] was “no significant differences”, the eGFR [3] was “slight reduction” and the “reduction in T lymphocyte proliferation indices versus the control group” value ([4]; 6 month of losartan treatment, p<0.005) was 69±47 % decrease. For the same molecule, the “reduction in T lymphocyte proliferation indices versus the control group” value ([4]; 9 month of losartan treatment, p<0.05) was 52±21 % decrease, the “Δ proliferation index (change from baseline)” value ([4]; three, six, and nine months, p<0.04) was “significant reduction” and the “solubility in common organic solvents” value ([1]; acetonitrile and methyl ethyl ketone) was “slightly soluble”. The solubility in alcohols ([1]; alcohols) was “soluble”, the solubility in water ([1]; water) was “freely soluble” and the “phosphorylation of STAT3” value (STAT3) was “decrease phosphorylation”. The “phosphorylation of STAT1” value (STAT1) was “decrease phosphorylation”, the “urinary H2O2 excretion” value (urinary H2O2; 6 months of treatment) was 2.17 ± 0.42 µM and the “urinary H2O2 excretion” value (urinary H2O2; 9 months of treatment, p<0.05 vs. time 0) was 1.65 ± 0.49 µM. The “urinary H2O2” value (urinary H2O2; baseline (time 0), ARB cohort) was 2.51 ± 0.62 µM.
